From patent US20170044208A1, “SELECTIVE GLUCOCORTICOID RECEPTOR LIGANDS” (The University of Manchester, priority 2013, published 2017)

How the values were obtained:
[1] = target: T1, Glucocorticoid Receptor (GR) (Homo sapiens, UniProt P04150); experiment: Transactivation assay (MMTV-Luc reporter in HeLa cells); type: cell-based; settings: comparison table; against maximal activation seen with dexamethasone
T1 construct: Cells were transfected the next day with MMTV-Luc (5 μg) and pGL4-hRLuc (0.1 μg); endogenous in cells; host or cells: HeLa
T1 sequence (P04150 1-777): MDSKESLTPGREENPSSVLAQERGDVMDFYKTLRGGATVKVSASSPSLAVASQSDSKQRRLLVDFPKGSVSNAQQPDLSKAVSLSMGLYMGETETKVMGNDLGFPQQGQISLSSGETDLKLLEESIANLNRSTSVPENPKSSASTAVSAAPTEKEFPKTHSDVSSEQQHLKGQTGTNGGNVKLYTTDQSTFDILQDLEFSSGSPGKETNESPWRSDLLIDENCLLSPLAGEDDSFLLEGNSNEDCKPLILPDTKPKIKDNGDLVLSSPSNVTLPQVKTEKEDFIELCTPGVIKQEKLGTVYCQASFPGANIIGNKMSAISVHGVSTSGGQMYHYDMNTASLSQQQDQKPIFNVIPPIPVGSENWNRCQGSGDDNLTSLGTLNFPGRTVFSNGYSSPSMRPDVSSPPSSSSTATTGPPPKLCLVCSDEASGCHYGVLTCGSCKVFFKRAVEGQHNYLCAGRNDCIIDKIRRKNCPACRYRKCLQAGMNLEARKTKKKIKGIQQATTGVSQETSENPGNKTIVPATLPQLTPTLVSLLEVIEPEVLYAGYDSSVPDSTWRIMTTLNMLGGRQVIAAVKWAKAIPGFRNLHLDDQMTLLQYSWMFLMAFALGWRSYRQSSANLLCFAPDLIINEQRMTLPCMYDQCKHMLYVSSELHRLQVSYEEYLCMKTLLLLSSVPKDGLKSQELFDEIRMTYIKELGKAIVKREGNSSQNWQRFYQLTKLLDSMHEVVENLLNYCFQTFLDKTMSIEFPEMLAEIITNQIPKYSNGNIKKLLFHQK
Procedure: (§1) HeLa cells were seeded at 80×10^4 cells/dish in 100 mm dishes. Cells were transfected the next day with MMTV-Luc (5 μg) and pGL4-hRLuc (0.1 μg), in 250 μL of Opti-MEM I using FuGENE HD (15 μL). After 24 hours, cells were trypsinized and seeded into 96-well plates at a density of 8-10×10^4 cells/mL.
Following overnight incubation to allow attachment, cells were treated with the required concentration of compounds, then further incubated for 16 hours. Media was aspirated and cells lysed in 40 μL of 1×PLB.
(§2) Firefly and Renilla luciferase activity was measured using the Dual Luciferase Reporter system following the manufacturer's protocol.
(§3) IC50 and EC50 values were calculated by using GraphPad Prism 5.0. Briefly, luminescence values for luciferase were normalised using the Renilla luminescence values. The normalised values were input into GraphPad Prism 5.0. Non-linear regression analysis was carried out using the “log(concentration) vs. response” equation of the software, with a Hill slope coefficient fixed at 1.
(§4) IC50 and EC50 values are mean values in nM of all IC50/EC50 values for the compound. Max % values are mean values of the Max% activity.

NFkB = experiment: Transrepression assay (NFκB-LUC reporter in HeLa cells, TNF stimulated); type: cell-based; settings: comparison table
Procedure: as §1, with “NFκB-LUC reporter” for “MMTV-Luc”, “0.25 mL” for “250 μL”, “in to 24-well” for “into 96-well”, “cells/mL. Following overnight incubation, cells were starved for a further 24 hours in DMEM.” for “cells/mL.”
On the day of the experiment, compounds were added to cells one hour prior to the addition of […] (0.5 ng/mL). After a further 16 hours, cells were washed twice with ice-cold PBS, then lysed with 100 μL of 1×PLB.
as §2, §3, §4

[2] = target: T2, mineralocorticoid receptor (MR) (Homo sapiens, UniProt P08235); experiment: Steroid receptor cross-reactivity, mineralocorticoid receptor; type: cell-based; settings: FIG. 3
T2 sequence (P08235 1-984): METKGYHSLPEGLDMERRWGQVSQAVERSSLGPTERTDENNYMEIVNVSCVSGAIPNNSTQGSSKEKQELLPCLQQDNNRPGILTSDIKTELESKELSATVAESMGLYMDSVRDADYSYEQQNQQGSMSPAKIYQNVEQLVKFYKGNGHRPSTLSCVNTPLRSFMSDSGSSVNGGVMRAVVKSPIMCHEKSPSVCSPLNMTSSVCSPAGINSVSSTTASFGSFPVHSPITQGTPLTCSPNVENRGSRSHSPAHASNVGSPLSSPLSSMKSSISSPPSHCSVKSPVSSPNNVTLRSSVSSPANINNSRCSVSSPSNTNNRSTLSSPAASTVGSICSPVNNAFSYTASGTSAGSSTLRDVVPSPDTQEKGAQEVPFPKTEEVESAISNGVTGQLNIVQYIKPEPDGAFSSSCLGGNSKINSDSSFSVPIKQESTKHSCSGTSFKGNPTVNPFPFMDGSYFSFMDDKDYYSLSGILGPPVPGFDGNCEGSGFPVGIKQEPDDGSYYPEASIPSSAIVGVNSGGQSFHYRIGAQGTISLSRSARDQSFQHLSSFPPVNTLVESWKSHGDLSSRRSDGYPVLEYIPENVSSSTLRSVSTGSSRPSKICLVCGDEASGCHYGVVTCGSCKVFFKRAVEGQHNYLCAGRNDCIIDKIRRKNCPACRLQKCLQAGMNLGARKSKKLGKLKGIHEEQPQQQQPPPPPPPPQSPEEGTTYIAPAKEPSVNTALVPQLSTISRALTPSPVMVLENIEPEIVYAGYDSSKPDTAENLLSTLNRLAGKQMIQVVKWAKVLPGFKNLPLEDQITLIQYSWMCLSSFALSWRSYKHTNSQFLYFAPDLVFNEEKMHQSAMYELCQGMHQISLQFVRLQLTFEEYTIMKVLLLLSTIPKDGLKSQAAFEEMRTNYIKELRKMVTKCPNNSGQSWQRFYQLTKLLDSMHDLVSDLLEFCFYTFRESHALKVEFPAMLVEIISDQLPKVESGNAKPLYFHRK
Text: There is a high degree of structural similarity between the various human steroid receptors. Ligands may therefore cross-react with other members of the steroid receptor family. In particular progesterone receptor and mineralocorticoid receptor show the highest structural similarity.

rat adjuvant arthritis = experiment: Established rat adjuvant arthritis; type: in vivo; settings: increasing doses, FIG. 7
Text: Established rat arthritis was chosen as the most relevant predictive model for chronic inflammatory arthritis in man. The disease is initiated with a caudal injection of complete Freund's adjuvant and the disease is established after 14 days. Anti-inflammatory molecules are given orally, usually once a day and after 7 days the animals are sacrificed. Paw volumes are the primary measurement and as a secondary measure inflammatory lesions are scored at a number of sites. At autopsy adrenal, spleen and thymus weights are recorded.
The arthritis score for the rats was used in these studies, as the inflammatory disease consists of both destructive inflammatory arthritis, but also systemic manifestations.
This analysis uses the area under the curve of arthritis score over the course of the experiment to yield a single, integrated measure for each experimental animal. The area under the curve of the vehicle treated animal is indicated on the graph for comparison purposes, but marked at an arbitrary log dose.

osteoblast activity = experiment: Rat bone formation assay, serum osteocalcin; type: in vivo; settings: daily oral, terminal (35 day) plasma, FIG. 9
Text: For the analysis of bone metabolism, and its regulation by orally administered GC, a rat bone formation assay was used.
Terminal (35 day) plasma was harvested, and osteocalcin measured, as an integrated measure of osteoblast activity across the skeleton.

endosteal bone formation = experiment: Rat endosteal bone increment; type: in vivo; settings: daily oral dose, FIG. 10
Text: However, osteoblast activity is not uniform across the skeleton, which may result in either over, or under estimation of the steroid effect. In young, growing, rats long bone remodelling during bone growth offers an attractive model to study active bone formation as the endosteal surface has new bone formation as the diameter of the shaft decreases due to endosteal bone formation, and periosteal bone resorption. As shown in FIG. 11 (CT reconstruction) as long bones grow the diameter of the shaft at the growing end (20% mark) is greater than that towards the middle of the bone (30% and 40% marks) due to loss of bone at the outer surface, or periosteal surface, and deposition of bone, due to osteoblast action, on the inner surface, or endosteal surface.
In contrast, there was no effect of Dex124 seen until 100 mg/Kg, giving an estimated IC50 of approximately 90 mg/Kg.

GR = target: T3, GR (Homo sapiens, UniProt P04150); settings: further analyses, Vayssiere et al. 1997; cited from earlier work
T3 sequence (P04150 1-777): T1 sequence (P04150 1-777)

apoptosis = settings: cited from earlier work
progesterone receptor = target: T4, progesterone receptor (Homo sapiens, UniProt P06401); settings: cited from earlier work
T4 sequence (P06401 1-933): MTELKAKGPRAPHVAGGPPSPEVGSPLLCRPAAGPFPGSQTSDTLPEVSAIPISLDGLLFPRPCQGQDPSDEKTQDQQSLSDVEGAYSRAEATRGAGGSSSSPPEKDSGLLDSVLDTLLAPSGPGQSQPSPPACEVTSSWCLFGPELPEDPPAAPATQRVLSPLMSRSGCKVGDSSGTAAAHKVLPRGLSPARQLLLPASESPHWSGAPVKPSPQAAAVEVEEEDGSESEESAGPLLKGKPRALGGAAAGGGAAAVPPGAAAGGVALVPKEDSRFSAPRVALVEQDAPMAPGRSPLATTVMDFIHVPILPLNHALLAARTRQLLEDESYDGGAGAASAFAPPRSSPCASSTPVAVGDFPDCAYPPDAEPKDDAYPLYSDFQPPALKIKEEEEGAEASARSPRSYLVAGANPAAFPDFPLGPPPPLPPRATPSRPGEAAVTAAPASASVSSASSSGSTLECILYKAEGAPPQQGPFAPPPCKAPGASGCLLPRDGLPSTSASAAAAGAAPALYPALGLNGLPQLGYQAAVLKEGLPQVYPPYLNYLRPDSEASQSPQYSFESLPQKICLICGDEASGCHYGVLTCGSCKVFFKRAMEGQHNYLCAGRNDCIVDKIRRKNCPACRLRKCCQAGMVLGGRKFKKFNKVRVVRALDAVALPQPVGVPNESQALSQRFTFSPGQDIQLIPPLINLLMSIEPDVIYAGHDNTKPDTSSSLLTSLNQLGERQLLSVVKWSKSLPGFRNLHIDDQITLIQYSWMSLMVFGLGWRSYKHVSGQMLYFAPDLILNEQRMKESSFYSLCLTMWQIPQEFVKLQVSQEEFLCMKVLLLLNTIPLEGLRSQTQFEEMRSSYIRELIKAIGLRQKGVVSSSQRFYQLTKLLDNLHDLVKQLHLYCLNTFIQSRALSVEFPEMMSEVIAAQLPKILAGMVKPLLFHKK

Structure (SMILES): C[C@]12C=CC(=O)C=C1CC[C@@H]1[C@@H]2[C@@H](O)C[C@@]2(C)[C@H]1CC[C@]2(O)C(=O)CO [Pred, prednisolone]
- TA % [1]: 68%
- IC50 (NFkB; Homo sapiens, HeLa, half-maximal repression of NFkB, multiple experiments, read-out: IC50): 12.9 nM
- TR % (NFkB; maximal NFkB repression compared to Dexamethasone): 99%
- activity on mineralocorticoid receptor [2]: significant activity
- arthritis clinical score (AUC) (rat adjuvant arthritis): inhibit arthritis clinical score
- osteocalcin concentration (osteoblast activity): dose-dependent inhibition of osteocalcin concentration
- IC50 for decrease in bone increment (endosteal bone formation): 7.8 mg/kg

Structure (SMILES): C[C@@H]1C[C@H]2[C@@H]3CCC4=CC(=O)C=C[C@]4(C)[C@@]3(F)[C@@H](O)C[C@]2(C)[C@H]1C(=O)CC#N [RU24858]
- GR agonist character (GR): low potency, low efficacy full agonist
- induction of apoptosis (apoptosis): does not induce apoptosis
- progesterone receptor activation (progesterone receptor): activating the progesterone receptor
